Test results: ChEMBL document CHEMBL6096706, “Discovery of WDR5-MLL1 and HDAC Dual-Target Inhibitors for the Treatment of Acute Myeloid Leukemia” (J Med Chem, 2025)

Assays:
[1] = system: MV4-11; assay: Antiproliferative activity against human MV4-11 cells assessed as growth inhibition at 0.2 uM measured after 72 hrs by CellTiterGlo assay; assay type: functional; details: read-out: GI
[2] = system: MV4-11; assay: Antiproliferative activity against human MV4-11 cells assessed as growth inhibition at 0.05 uM measured after 72 hrs in presence of 0.1 uM of vorinostat by CellTiterGlo assay; assay type: functional; details: read-out: GI
[3] = system: MV4-11; assay: Antiproliferative activity against human MV4-11 cells assessed as growth inhibition at 0.4 uM measured after 72 hrs in presence of 0.1 uM of vorinostat by CellTiterGlo assay; assay type: functional; details: read-out: GI
[4] = system: MV4-11; assay: Antiproliferative activity against human MV4-11 cells assessed as growth inhibition at 0.1 uM measured after 72 hrs in presence of 0.2 uM of vorinostat by CellTiterGlo assay; assay type: functional; details: read-out: GI
[5] = system: MV4-11; assay: Induction of apoptosis in human MV4-11 cells assessed as viable cells at 200 nM incubated for 72 hrs in presence of vorinostat by Annexin V/PI staining based flow cytometry analysis (reference value: 96.68%); assay type: functional; details: read-out: Activity
[6] = system: MV4-11; assay: Induction of apoptosis in human MV4-11 cells assessed as late apoptotic cells at 200 nM incubated for 72 hrs in presence of vorinostat by Annexin V/PI staining based flow cytometry analysis (reference value: 6.42 %); assay type: functional
[7] = system: MV4-11; assay: Antiproliferative activity against human MV4-11 cells assessed as growth inhibition at 1 uM measured after 72 hrs in presence of 0.5 uM of vorinostat by CellTiterGlo assay; assay type: functional; details: read-out: GI
[8] = system: MV4-11; assay: Antiproliferative activity against human MV4-11 cells assessed as growth inhibition at 1 uM measured after 72 hrs in presence of 0.4 uM of vorinostat by CellTiterGlo assay; assay type: functional; details: read-out: GI
[9] = system: MV4-11; assay: Antiproliferative activity against human MV4-11 cells assessed as growth inhibition at 2 uM measured after 72 hrs in presence of 0.4 uM of vorinostat by CellTiterGlo assay; assay type: functional; details: read-out: GI
[10] = system: MV4-11; assay: Antiproliferative activity against human MV4-11 cells assessed as growth inhibition at 0.4 uM measured after 72 hrs in presence of 1 uM of vorinostat by CellTiterGlo assay; assay type: functional; details: read-out: GI
[11] = system: MV4-11; assay: Antiproliferative activity against human MV4-11 cells assessed as growth inhibition at 0.5 uM measured after 72 hrs in presence of 0.1 uM of vorinostat by CellTiterGlo assay; assay type: functional; details: read-out: GI
[12] = system: MV4-11; assay: Antiproliferative activity against human MV4-11 cells assessed as growth inhibition at 0.2 uM measured after 72 hrs in presence of 0.1 uM of vorinostat by CellTiterGlo assay; assay type: functional; details: read-out: GI
[13] = target: T1, Histone deacetylase 11 (Homo sapiens, UniProt Q96DB2); assay: Inhibition of HDAC11 (unknown origin) by fluorescence based assay
T1 sequence (Q96DB2 whole entry): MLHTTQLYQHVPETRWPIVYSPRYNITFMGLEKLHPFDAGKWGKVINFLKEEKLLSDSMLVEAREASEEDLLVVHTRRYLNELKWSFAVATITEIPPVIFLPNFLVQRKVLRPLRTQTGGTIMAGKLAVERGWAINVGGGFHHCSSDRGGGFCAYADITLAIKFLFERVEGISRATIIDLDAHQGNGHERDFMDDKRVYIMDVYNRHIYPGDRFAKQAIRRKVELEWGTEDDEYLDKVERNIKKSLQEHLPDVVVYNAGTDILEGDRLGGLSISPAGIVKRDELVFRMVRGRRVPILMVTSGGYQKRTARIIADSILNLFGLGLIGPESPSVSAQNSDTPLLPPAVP

[14] = system: MV4-11; assay: Induction of apoptosis in human MV4-11 cells assessed as early apoptotic cells at 50 nmol/L incubated for 72 hrs by Annexin V/PI staining based flow cytometry analysis (reference value: 4.17 %); assay type: functional
[15] = Toxicity in mouse implanted in human MV4-11 cells assessed as body weight loss at 10 to 30 mg/kg, ip administered daily for 17 days; assay type: organism-based; details: in vivo, 408 h, dose 10-30 mg/kg, time 17 day
[16] = Toxicity in mouse implanted in human MV4-11 cells assessed as liver damage at 10 to 30 mg/kg, ip administered daily for 17 days by H and E staining based analysis; assay type: organism-based; details: in vivo, 408 h, dose 10-30 mg/kg, time 17 day
[17] = system: MV4-11; assay: Induction of apoptosis in human MV4-11 cells assessed as necrotic cells at 50 nmol/L incubated for 72 hrs by Annexin V/PI staining based flow cytometry analysis (reference value: 0.46%); assay type: functional

| SMILES | inhibition of growth at 0.2 µM [1] [%] | inhibition of growth at 0.05 µM [2] [%] | inhibition of growth at 0.4 µM [3] [%] | inhibition of growth at 0.1 µM [4] [%] | viability at 0.2 µM [5] [%] | Activity [6] [%] | inhibition of growth at 1 µM [7] [%] | inhibition of growth at 1 µM [8] [%] | inhibition of growth at 2 µM [9] [%] | inhibition of growth at 0.4 µM [10] [%] | inhibition of growth at 0.5 µM [11] [%] | inhibition of growth at 0.2 µM [12] [%] | IC50 [13] [µM] | Activity [14] [%] | Activity [15] | Activity [16] | Activity [17] [%] |
| --- | --- | --- | --- | --- | --- | --- | --- | --- | --- | --- | --- | --- | --- | --- | --- | --- | --- |
| Cc1c(F)c(N)cc(C(=O)Nc2cc(-c3ccc(C(=O)N4CCOCC4)cc3)ccc2N2CCN(C)CC2)c1Cl | 23.9 | 34.5 | 55 | 49.3 | 57 | 7.65 | 77.1 | 68.7 | 89.4 | 90.8 | 51.7 | 45 |  |  |  |  |  |
| Cc1c(F)c(N)cc(C(=O)Nc2cc(-c3ccc(C(=O)NCc4ccc(/C=C/C(=O)NO)cc4)cc3)ccc2N2CCN(C)CC2)c1Cl |  |  |  |  |  |  |  |  |  |  |  |  | > 10 | 11.03 | Non-toxic | Non-toxic | 2.44 |
